The structures appear in SMILES notation. Starred links: 1 amine or outer side, 2 acyl side, 3 side chain; linkers in the order of their positions; H or OH if unused. Non-standard residues stand in square brackets, D forms with d. Residues, ends and D or L forms follow the SMILES beside them. Groups on a side chain read outwards from the residue. *: point of attachment. C18 diacid = O=C(O)CCCCCCCCCCCCCCCCC(=O)*; αMePhe(2-F) = C[C@](N)(Cc1ccccc1F)C(=O)O; γGlu = O=C(O)[C@H](CCC(=O)[*:2])N[*:1]; AEEA = NCCOCCOCC(=O)O; Aib = CC(C)(N)C(=O)O

What all share (format): cell-based
One assay addresses T1, GLP-1R (Homo sapiens, UniProt P43220).
T1 construct: expressed in transfected cells; host or cells: HEK293 (HEK293-GLP-1R)
The assay can be described thus: In vitro cell activity, cAMP production in HEK293 cells expressing GLP-1R. The note with it: HEK293-GLP-1R cells, cAMP; read-out: GLP-1R (EC50). The method in brief: (§1)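 Assay format: cells at 4×10^5 cells/mL, cAMP sensed by d2/cryptate FRET pair, dual-wavelength read at 665 and 620 nm. Potency expressed as EC50 from nonlinear fitting.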
On the technique in general: Changes in cAMP serve as a functional read-out for many G protein-coupled receptors.

For a further assay, the target named is T2, GCGR (Homo sapiens, UniProt P47871).
T2 construct: expressed in transfected cells; host or cells: HEK293 (HEK293-GCGR)
The assay can be described thus: In vitro cell activity, cAMP production in HEK293 cells expressing GCGR. The following applies: HEK293-GCGR cells, cAMP; read-out: GCGR (EC50). The procedure, abridged:
as §1

Another assay addresses T3, GIPR (Homo sapiens, UniProt P48546).
T3 construct: expressed in transfected cells; host or cells: HEK293 (HEK293-GIPR)
T3 sequence (P48546 22-466): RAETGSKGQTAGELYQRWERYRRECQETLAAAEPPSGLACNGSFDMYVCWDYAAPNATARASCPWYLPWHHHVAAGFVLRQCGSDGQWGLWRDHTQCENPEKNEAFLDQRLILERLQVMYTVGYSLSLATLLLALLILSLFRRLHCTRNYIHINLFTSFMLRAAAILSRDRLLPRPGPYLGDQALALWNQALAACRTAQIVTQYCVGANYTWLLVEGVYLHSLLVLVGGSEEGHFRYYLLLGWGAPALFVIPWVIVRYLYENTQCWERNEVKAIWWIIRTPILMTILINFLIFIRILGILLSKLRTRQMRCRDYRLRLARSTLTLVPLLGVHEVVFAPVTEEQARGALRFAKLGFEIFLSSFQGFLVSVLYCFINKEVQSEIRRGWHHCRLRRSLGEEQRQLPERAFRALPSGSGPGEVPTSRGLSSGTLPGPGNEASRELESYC
The assay is described as follows: In vitro cell activity, cAMP production in HEK293 cells expressing GIPR. The following applies: HEK293-GIPR cells, cAMP; read-out: GIPR (EC50). The procedure, abridged:
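cAMP accumulation is quantified by homogeneous TR-FRET (cAMP-d2 plus anti-cAMP cryptate) in GIPR-expressing HEK293 cells seeded from a 4×10^5 cells/mL suspension and treated with compound. The signal ratio is plotted against concentration and fitted to a four-parameter curve to give EC50.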

T2 sequence (P47871 26-477, species assumed): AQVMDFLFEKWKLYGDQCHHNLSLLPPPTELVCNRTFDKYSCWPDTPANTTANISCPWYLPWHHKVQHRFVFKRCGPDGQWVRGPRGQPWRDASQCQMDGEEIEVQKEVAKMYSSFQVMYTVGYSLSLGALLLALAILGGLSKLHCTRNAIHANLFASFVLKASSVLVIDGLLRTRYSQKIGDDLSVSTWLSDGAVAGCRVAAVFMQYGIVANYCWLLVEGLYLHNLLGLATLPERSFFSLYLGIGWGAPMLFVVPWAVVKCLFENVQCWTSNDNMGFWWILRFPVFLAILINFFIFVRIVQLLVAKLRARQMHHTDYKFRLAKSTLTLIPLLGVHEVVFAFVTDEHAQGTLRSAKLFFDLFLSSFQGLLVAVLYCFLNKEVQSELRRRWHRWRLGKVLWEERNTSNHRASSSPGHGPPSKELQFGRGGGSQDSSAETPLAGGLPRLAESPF
T1 sequence (P43220 24-463, species assumed): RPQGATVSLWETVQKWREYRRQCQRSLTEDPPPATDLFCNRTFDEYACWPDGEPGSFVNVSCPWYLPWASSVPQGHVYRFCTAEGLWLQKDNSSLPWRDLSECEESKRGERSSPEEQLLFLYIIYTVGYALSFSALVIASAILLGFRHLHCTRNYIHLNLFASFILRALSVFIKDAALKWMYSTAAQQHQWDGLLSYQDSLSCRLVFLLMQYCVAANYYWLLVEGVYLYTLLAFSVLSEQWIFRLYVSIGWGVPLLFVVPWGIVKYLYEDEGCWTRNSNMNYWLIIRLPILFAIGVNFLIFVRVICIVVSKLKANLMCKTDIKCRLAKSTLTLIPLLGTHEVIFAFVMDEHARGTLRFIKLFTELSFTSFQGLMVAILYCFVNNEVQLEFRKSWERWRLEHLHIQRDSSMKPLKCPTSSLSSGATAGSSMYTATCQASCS

As a reminder, the EC50 is the concentration needed to bring the measured effect to its halfway point. Turning to `CC[C@H](C)[C@H](NC(=O)[C@H](Cc1ccccc1)NC(=O)[C@H](C)NC(=O)[C@H](CCCCN)NC(=O)[C@H](CCC(N)=O)NC(=O)[C@H](CCCNC(=N)N)NC(=O)[C@H](CCCCNC(=O)COCCOCCNC(=O)CC[C@H](NC(=O)CCCCCCCCCCCCCCCCC(=O)O)C(=O)O)NC(=O)[C@H](CCC(=O)O)NC(=O)[C@H](CC(=O)O)NC(=O)[C@H](CC(C)C)NC(=O)[C@H](CC(C)C)NC(=O)[C@@H](NC(=O)[C@H](CO)NC(=O)[C@H](Cc1ccc(O)cc1)NC(=O)[C@H](CC(=O)O)NC(=O)[C@H](CO)NC(=O)[C@@H](NC(=O)[C@](C)(Cc1ccccc1F)NC(=O)[C@@H](NC(=O)CNC(=O)[C@H](Cc1c[nH]cn1)NC(=O)C(C)(C)NC(=O)[C@@H](N)Cc1ccc(O)cc1)[C@@H](C)O)[C@@H](C)O)[C@@H](C)CC)C(=O)N[C@@H](CCC(=O)O)C(=O)N[C@@H](Cc1ccc(O)cc1)C(=O)N[C@@H](CC(C)C)C(=O)N[C@@H](CC(C)C)C(=O)N[C@@H](C)C(=O)NCC(=O)NCC(=O)N1CCC[C@H]1C(=O)N[C@@H](CO)C(=O)N[C@@H](CO)C(=O)NCC(=O)N[C@@H](C)C(=O)N1CCC[C@H]1C(=O)N1CCC[C@H]1C(=O)N1CCC[C@H]1C(=O)N[C@@H](CO)C(N)=O` [HEC-PT121], the figures for the EC50 at GLP-1R, at GCGR and at GIPR were 0.275 nM, 0.89 nM and 0.0813 nM, respectively.
In the case of `CC[C@H](C)[C@H](NC(=O)[C@H](CCCCN)NC(=O)[C@H](CC(=O)O)NC(=O)[C@H](CCCCNC(=O)COCCOCCNC(=O)CC[C@H](NC(=O)CCCCCCCCCCCCCCCCC(=O)O)C(=O)O)NC(=O)[C@H](CC(C)C)NC(=O)[C@@H](NC(=O)[C@H](CO)NC(=O)[C@H](Cc1ccc(O)cc1)NC(=O)[C@H](CC(=O)O)NC(=O)[C@H](CO)NC(=O)[C@@H](NC(=O)[C@](C)(Cc1ccccc1F)NC(=O)[C@@H](NC(=O)CNC(=O)[C@H](CCC(N)=O)NC(=O)C(C)(C)NC(=O)[C@@H](N)Cc1ccc(O)cc1)[C@@H](C)O)[C@@H](C)O)[C@@H](C)CC)C(=O)N[C@@H](C)C(=O)N[C@@H](CCC(N)=O)C(=O)N[C@@H](CCC(N)=O)C(=O)N[C@@H](C)C(=O)N[C@@H](Cc1ccccc1)C(=O)N[C@H](C(=O)N[C@@H](CCC(=O)O)C(=O)N[C@@H](Cc1ccc(O)cc1)C(=O)N[C@@H](CC(C)C)C(=O)N[C@@H](CC(C)C)C(=O)N[C@@H](C)C(=O)NCC(=O)NCC(=O)N1CCC[C@H]1C(=O)N[C@@H](CO)C(=O)N[C@@H](CO)C(=O)NCC(=O)N[C@@H](C)C(=O)N1CCC[C@H]1C(=O)N1CCC[C@H]1C(=O)N1CCC[C@H]1C(=O)N[C@@H](CO)C(N)=O)[C@@H](C)CC` [HEC-PT122] (H-Y[Aib]QGT[αMePhe(2-F)]TSDYSILK([AEEA-γGlu-C18 diacid])DKIAQQAFIEYLLAGGPSSGAPPPS-NH2), the EC50 on GLP-1R was determined as 0.0893 nM; on GCGR it was 0.162 nM; on GIPR, 0.0276 nM.
Take `CC[C@H](C)[C@H](NC(=O)[C@H](Cc1ccccc1)NC(=O)[C@H](C)NC(=O)[C@H](CCCNC(=N)N)NC(=O)[C@H](CCC(N)=O)NC(=O)[C@H](CCCNC(=N)N)NC(=O)[C@H](CCCCNC(=O)COCCOCCNC(=O)CC[C@H](NC(=O)CCCCCCCCCCCCCCCCC(=O)O)C(=O)O)NC(=O)[C@H](CCC(=O)O)NC(=O)[C@H](CC(=O)O)NC(=O)[C@H](CC(C)C)NC(=O)[C@H](CC(C)C)NC(=O)[C@@H](NC(=O)[C@H](CO)NC(=O)[C@H](Cc1ccc(O)cc1)NC(=O)[C@H](CC(=O)O)NC(=O)[C@H](CO)NC(=O)[C@@H](NC(=O)[C@](C)(Cc1ccccc1F)NC(=O)[C@@H](NC(=O)CNC(=O)[C@H](CCC(N)=O)NC(=O)C(C)(C)NC(=O)[C@@H](N)Cc1ccc(O)cc1)[C@@H](C)O)[C@@H](C)O)[C@@H](C)CC)C(=O)N[C@@H](CCC(=O)O)C(=O)N[C@@H](Cc1ccc(O)cc1)C(=O)N[C@@H](CC(C)C)C(=O)N[C@@H](CC(C)C)C(=O)N[C@@H](CCC(=O)O)C(=O)NCC(=O)NCC(=O)N1CCC[C@H]1C(=O)N[C@@H](CO)C(=O)N[C@@H](CO)C(=O)NCC(=O)N[C@@H](C)C(=O)N1CCC[C@H]1C(=O)N1CCC[C@H]1C(=O)N1CCC[C@H]1C(=O)N[C@@H](CO)C(=O)O` [HEC-PT124]: the EC50 was determined as 0.228 nM on GLP-1R, 0.332 nM on GCGR and 0.152 nM on GIPR.
Regarding `CC[C@H](C)[C@H](NC(=O)[C@H](Cc1ccccc1)NC(=O)[C@H](CCC(=O)O)NC(=O)[C@H](CCCCNC(=O)COCCOCCNC(=O)CC[C@H](NC(=O)CCCCCCCCCCCCCCCCC(=O)O)C(=O)O)NC(=O)[C@H](CCC(N)=O)NC(=O)[C@H](CCCNC(=N)N)NC(=O)[C@@H](NC(=O)[C@H](CCCNC(=N)N)NC(=O)[C@H](CC(=O)O)NC(=O)[C@H](CC(C)C)NC(=O)[C@H](CC(C)C)NC(=O)[C@@H](NC(=O)[C@H](CO)NC(=O)[C@H](Cc1ccc(O)cc1)NC(=O)[C@H](CC(=O)O)NC(=O)[C@H](CO)NC(=O)[C@@H](NC(=O)[C@](C)(Cc1ccccc1F)NC(=O)[C@@H](NC(=O)CNC(=O)[C@H](CCC(N)=O)NC(=O)C(C)(C)NC(=O)[C@@H](N)Cc1ccc(O)cc1)[C@@H](C)O)[C@@H](C)O)[C@@H](C)CC)[C@@H](C)CC)C(=O)N[C@@H](CCC(=O)O)C(=O)N[C@@H](Cc1c[nH]c2ccccc12)C(=O)N[C@@H](CC(C)C)C(=O)N[C@@H](CC(C)C)C(=O)N[C@@H](C)C(=O)NCC(=O)NCC(=O)N1CCC[C@H]1C(=O)N[C@@H](CO)C(=O)N[C@@H](CO)C(=O)NCC(=O)N[C@@H](C)C(=O)N1CCC[C@H]1C(=O)N1CCC[C@H]1C(=O)N1CCC[C@H]1C(=O)N[C@@H](CO)C(=O)O` [HEC-PT125] (H-Y[Aib]QGT[αMePhe(2-F)]TSDYSILLDRIRQK([AEEA-γGlu-C18 diacid])EFIEWLLAGGPSSGAPPPS-OH), the EC50 is 0.123 nM on GLP-1R, 0.0269 nM at GCGR and 0.0217 nM at GIPR.
As for `CC[C@H](C)[C@H](NC(=O)[C@H](Cc1ccccc1)NC(=O)[C@H](C)NC(=O)[C@H](CCCCNC(=O)COCCOCCNC(=O)CC[C@H](NC(=O)CCCCCCCCCCCCCCCCC(=O)O)C(=O)O)NC(=O)[C@H](CCC(N)=O)NC(=O)[C@H](CCCNC(=N)N)NC(=O)[C@@H](NC(=O)[C@H](CCCNC(=N)N)NC(=O)[C@H](CC(=O)O)NC(=O)[C@H](CC(C)C)NC(=O)[C@H](CC(C)C)NC(=O)[C@@H](NC(=O)[C@H](CO)NC(=O)[C@H](Cc1ccc(O)cc1)NC(=O)[C@H](CC(=O)O)NC(=O)[C@H](CO)NC(=O)[C@@H](NC(=O)[C@](C)(Cc1ccccc1F)NC(=O)[C@@H](NC(=O)CNC(=O)[C@H](CCC(N)=O)NC(=O)C(C)(C)NC(=O)[C@@H](N)Cc1ccc(O)cc1)[C@@H](C)O)[C@@H](C)O)[C@@H](C)CC)[C@@H](C)CC)C(=O)N[C@@H](CCC(=O)O)C(=O)N[C@@H](Cc1ccc(O)cc1)C(=O)N[C@@H](CC(C)C)C(=O)N[C@@H](CC(C)C)C(=O)N[C@@H](CCC(=O)O)C(=O)NCC(=O)NCC(=O)N1CCC[C@H]1C(=O)N[C@@H](CO)C(=O)N[C@@H](CO)C(=O)NCC(=O)N[C@@H](C)C(=O)N1CCC[C@H]1C(=O)N1CCC[C@H]1C(=O)N1CCC[C@H]1C(=O)N[C@@H](CO)C(=O)O` [HEC-PT126], the EC50 came to 0.861 nM at GLP-1R, 0.0319 nM on GCGR and 0.0589 nM on GIPR.
For the molecule `CC[C@H](C)[C@H](NC(=O)[C@H](Cc1ccccc1)NC(=O)[C@H](CCC(=O)O)NC(=O)[C@H](CCC(N)=O)NC(=O)[C@H](CCC(N)=O)NC(=O)[C@H](CCCNC(=N)N)NC(=O)[C@H](CCCCNC(=O)COCCOCCNC(=O)CC[C@H](NC(=O)CCCCCCCCCCCCCCCCCCC(=O)O)C(=O)O)NC(=O)[C@H](CCCNC(=N)N)NC(=O)[C@H](CC(=O)O)NC(=O)[C@H](CC(C)C)NC(=O)[C@H](CC(C)C)NC(=O)[C@@H](NC(=O)[C@H](CO)NC(=O)[C@H](Cc1ccc(O)cc1)NC(=O)[C@H](CC(=O)O)NC(=O)[C@H](CO)NC(=O)[C@@H](NC(=O)[C@](C)(Cc1ccccc1F)NC(=O)[C@@H](NC(=O)CNC(=O)[C@H](CCC(N)=O)NC(=O)C(C)(C)NC(=O)[C@@H](N)Cc1ccc(O)cc1)[C@@H](C)O)[C@@H](C)O)[C@@H](C)CC)C(=O)N[C@@H](CCC(=O)O)C(=O)N[C@@H](Cc1c[nH]c2ccccc12)C(=O)N[C@@H](CC(C)C)C(=O)N[C@@H](CC(C)C)C(=O)N[C@@H](C)C(=O)NCC(=O)NCC(=O)N1CCC[C@H]1C(=O)N[C@@H](CO)C(=O)N[C@@H](CO)C(=O)NCC(=O)N[C@@H](C)C(=O)N1CCC[C@H]1C(=O)N1CCC[C@H]1C(=O)N1CCC[C@H]1C(=O)N[C@@H](CO)C(=O)O` [HEC-PT127], the EC50 was 0.127 nM on GLP-1R, 0.0707 nM at GCGR and 0.0465 nM on GIPR.
